The record followed here is PubChem BioAssay (NCI).

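Values below derive from 48-hour exposures of cells grown in 96-well plates, with endpoints linearly interpolated between the two concentrations bracketing the appropriate inhibition level. At the TGI there is no net growth.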

What all share (assay): growth of human tumour cells (NCI), 48 h
Experiment [1] relates to OVCAR-3 ovarian.
In experiment [2] the test system is OVCAR-8 ovarian.
The subject of experiment [3] is HT29 colon.
Experiment [4] has as its system OVCAR-4 ovarian.
Experiment [5] relates to LOX IMVI melanoma.
Experiment [6] relates to MDA-MB-231 breast.
Experiment [7] deals with CAKI-1 renal.
Experiment [8] relates to HS 578T breast.
The subject of experiment [9] is RXF 393 renal.
The test system of experiment [10] is MALME-3M melanoma.
Experiment [11] relates to HCT-15 colon.
For experiment [12], the system named is HOP-92 NSCLC.
Experiment [13] relates to SF-268 CNS.
For experiment [14], the system named is SK-MEL-2 melanoma.
Experiment [15] relates to M14 melanoma.
The test system of experiment [16] is T-47D breast.
Experiment [17] has as its system KM12 colon.
For experiment [18], the system named is HCT-116 colon.
Experiment [19] deals with OVCAR-5 ovarian.

Turning to `CC(=O)Nc1ccc(C(O)/C(=N/N)c2nc3ccc(Cl)cc3[nH]c2=O)cc1` (configuration not stated), the TGI in experiment [1], in experiment [2], in experiment [3], in experiment [4], in experiment [5] and in experiment [6] was more than 100 µM in each case. Moreover, the TGI in experiment [7], in experiment [8], in experiment [9], in [10], in experiment [11] and in experiment [12] was more than 100 µM throughout. For the same compound, the TGI in experiment [13], in experiment [14], in experiment [15], in [16], in experiment [17] and in experiment [18] was more than 100 µM throughout. This compound also had a TGI in experiment [19] of more than 100 µM.
For the compound `CC(C)(C)c1cc2c(OC/C=C/c3ccccc3)c(c1)Cc1cc(C(C#N)(OC/C=C/c3ccccc3)OC/C=C/c3ccccc3)cc(c1OC/C=C\c1ccccc1)Cc1cc(C(C)(C)C)cc(c1OC/C=C/c1ccccc1)Cc1cc(C(C#N)(OC/C=C\c3ccccc3)OC/C=C/c3ccccc3)cc(c1OC/C=C\c1ccccc1)C2` (configuration not stated), the TGI in [1], in [2], in experiment [3], in experiment [4], in [5] and in [6] was more than 100 µM throughout. Besides, the TGI in experiment [7], in experiment [8], in [9], in [10], in experiment [11] and in [12] was more than 100 µM throughout. Moreover, the TGI in experiment [13], in experiment [14], in experiment [15], in experiment [16], in experiment [17] and in [18] was more than 100 µM throughout. In experiment [19], this compound registered a TGI of more than 100 µM.
For the compound `CN(C)c1ccc(C(Cc2ccccc2)C2NC(=S)NC2=O)cc1` (configuration not stated), the TGI in experiment [1], in [2], in experiment [3], in [4], in experiment [5] and in experiment [6] was more than 100 µM throughout. Moreover, the TGI in [7], in [8], in [9], in experiment [10], in experiment [11] and in experiment [12] was more than 100 µM in each case. Also, the TGI in experiment [13], in [14], in [15], in experiment [16], in experiment [17] and in [18] was more than 100 µM in each case. In experiment [19], this compound returned a TGI of more than 100 µM.
Regarding `COc1ccc(C(=O)/C=C/c2ccc(O)c(O)c2)c(OC)c1`, the TGI in experiment [1] was 2.66 µM; in experiment [2], more than 86.6 µM; in experiment [3], 32 µM; in experiment [4] it was more than 100 µM; in experiment [5], 26.4 µM; in experiment [6], 27.3 µM. The TGI in experiment [7] is 34.5 µM; in experiment [8], more than 100 µM; in experiment [9], 39.2 µM; in experiment [10] it was 21.8 µM; in experiment [11] it was 24.3 µM; in experiment [12], more than 100 µM. Further, the TGI in experiment [13] was more than 52.6 µM; in [14], 9.82 µM; in experiment [15], 19 µM; in [16] it was more than 100 µM; in experiment [17], 15 µM; in [18], 16.1 µM. Also, in experiment [19], the TGI turned out to be 47.2 µM.
For the compound `O=C1OCC2OC(=O)c3cc(O)c(O)c(O)c3-c3c(O)c(O)c(O)c4c3C(=O)OC(C2OC(=O)c2cc(O)c(O)c(O)c2-c2c1cc(O)c(O)c2O)C1OC(=O)c2c-4c(O)c(O)c(O)c2[C@@H]1C(O)C(O)C(O)C(O)CO` (some centres not stated), the TGI in experiment [1] turned out to be 80.6 µM; in [2], 44.1 µM; in experiment [3], 36 µM; in experiment [4], 41 µM; in experiment [5], 6.04 µM; in experiment [6] it was 30.5 µM. Besides, the TGI in experiment [7] was 26.7 µM; in experiment [8], 70.3 µM; in [9] it was 34.3 µM; in experiment [10], 38.9 µM; in [11], 37.7 µM; in [12], 45.8 µM. Besides, the TGI in experiment [13] is 47.4 µM; in experiment [14], 48.3 µM; in experiment [15], 39.4 µM; in experiment [16] it was 45.2 µM; in experiment [17] it was 52.3 µM; in [18] it was 31.3 µM. In experiment [19], this compound returned a TGI of 33 µM.
On to `CC1(/C=C/CCSc2ccccc2)CC(=O)C2CC1C2(C)C` (configuration not stated), for which the TGI in [1] was more than 91.3 µM; in experiment [2], more than 100 µM; in experiment [3], 29.4 µM; in [4], more than 100 µM; in experiment [5], 43.9 µM; in experiment [6] it was more than 100 µM. Also, the TGI is more than 82 µM in [7]; more than 100 µM in experiment [8]; more than 100 µM in experiment [9]; more than 69.7 µM in [10]; more than 96 µM in [11]; more than 75.4 µM in [12]. Also, the TGI in experiment [13] was more than 100 µM; in [14] it was more than 55.9 µM; in experiment [15], more than 100 µM; in experiment [16] it was more than 100 µM; in experiment [17], 54.4 µM; in [18], more than 100 µM. In [19], this compound gave a TGI of more than 100 µM.
Consider `C=CCN1C(=O)/C(=C/c2cccs2)N=C1SC/C=C/C`, for which the TGI in [1], in experiment [2], in [3], in experiment [4], in [5] and in experiment [6] was more than 100 µM each time. Also, the TGI is more than 100 µM in experiment [7]; more than 100 µM in experiment [8]; 85.2 µM in experiment [9]; 96.6 µM in experiment [10]; more than 100 µM in [11]; more than 100 µM in experiment [12]. Also, the TGI in [13] is more than 100 µM; in [14], 65.8 µM; in experiment [15] it was more than 100 µM; in [16], more than 100 µM; in [17], more than 100 µM; in experiment [18] it was more than 100 µM. The same compound yielded a TGI in [19] of more than 100 µM.
With `CC1=NN(C(=O)c2ccncc2)C(=O)C1`, the TGI in experiment [1], in [2], in experiment [3], in experiment [4], in [5] and in experiment [6] was more than 100 µM each time. In addition, the TGI in [7], in experiment [8], in [9], in experiment [10], in [11] and in [12] was more than 100 µM throughout. Besides, the TGI in experiment [13], in experiment [14], in [15], in [16], in experiment [17] and in experiment [18] was more than 100 µM throughout. Moreover, the TGI in experiment [19] was more than 100 µM.
